Structures can show the parent of a compound that is named as a salt.

The test system of test [1] is MDA-MB-436 human breast cancer xenografts. The experiment in a line: Antitumor activity against subcutaneous MDA-MB-436 human breast cancer xenografts in SCID mice (three studies). The class given is in vivo. On the procedure: MDA-MB-436 human triple negative breast cancer cells are BRCA1 mutant and PTEN null. Cells were maintained in monolayer cultures in RPMI-1640 growth medium supplemented with 10% fetal bovine serum at 37° C. in a 5% CO2 humidified incubator. On the day of inoculation, cells were harvested by trypsinization, washed, and resuspended in ice-cold PBS. Female immunodeficient SCID mice were inoculated subcutaneously near the right axillary area with MDA-MB-436 cells (5×10^6) in a 1:1 ratio (50 μL each) with Matrigel™ in a volume of 0.1 mL in phosphate buffered saline, using a 26-gauge needle. A total of 125 mice, approximately 6 weeks old were implanted with MDA-MB-436 cells.
E7449, carboplatin and E7389 were evaluated as single agents and in combination for antitumor activity against MDA-MB-436 human breast cancer xenografts in SCID mice. Three separate studies were performed. The first experiment consisted of a vehicle control group, an E7449 single agent group, two groups treated with single agent E7389 and 2 combination drug-treated groups (Table 1). Thirty mice were inoculated with MDA-MB-436 cells and on Day 58 following implantation, tumor volumes were measured and mice were randomized into the 6 treatment groups based on tumor volume (average of 300 mm^3). Following randomization, drug treatment was initiated. Groups A to D were composed of 5 mice and groups E and F consisted of 4 mice for a total of 28 mice on the first day of treatment. E7449 was formulated in 0.5% methyl cellulose and orally administered once daily for 28 days (starting on Day 58) at 60 mg/kg based on body weight at 0.1 mL per 10 g. E7389 was formulated in saline and was intravenously administered once every 4 days, 4 times (Day 58, 62, 66, and 70) at a dosage of 0.4 or 1.6 mg/kg as single agent or in combination with E7449, based on body weight at 0.1 mL per 10 g. The control group was treated with oral vehicle (0.5% methyl cellulose in water) daily and intravenous vehicle (saline) once every 4 days, 4 times. E7449 or vehicle was administered first and when dosing of all animals was complete, E7389 was administered to animals receiving the combination.
The second experiment consisted of a vehicle control group, an E7449 single agent group, 2 groups treated with single agent carboplatin, and 2 combination drug-treated groups (Table 2). Thirty-five mice were inoculated with MDA-MB-436 cells and on Day 57, following implantation, tumor volumes were measured and mice were randomized into 6 treatment groups based on tumor volume (average of 250 mm^3). Following randomization drug treatment was initiated. Groups A to D were composed of 5 mice and groups E and F consisted of 6 mice for a total of 32 mice on the first day of treatment. E7449, formulated in 0.5% methyl cellulose was orally administered daily for 28 days (starting on Day 57), at 60 mg/kg based on body weight at 0.1 mL per 10 g. Carboplatin was formulated in saline and was intravenously administered once on the first day of treatment (Day 57) at a dosage of 15 or 60 mg/kg as a single agent or in combination with E7449 based on body weight at 0.1 mL per 10 g. The control group was treated with oral vehicle (0.5% methyl cellulose in water) daily and intravenous vehicle (saline) once on Day 57. E7449 or vehicle was administered first, and when dosing of all animals was complete carboplatin was administered to animals receiving the combination.
The third experiment consisted of a vehicle control group, 3 groups treated with single agent E7449, E7389, or carboplatin, 3 groups treated with double combinations of E7449+E7389, E7449+carboplatin, and E7389+carboplatin and a group treated with the three-drug combination (Table 3). Sixty mice were inoculated with MDA-MB-436 cells and on Day 41 following implantation, tumor volumes were measured and mice were randomized into 8 treatment groups based on tumor volume (average of 250 mm^3). Following randomization drug treatment was initiated.
On the technique in general: Xenograft models place foreign cells or tissue in a host animal.

Test [2] has as its system total Akt levels. The experiment in a line: Pharmacodynamic biomarker analysis of total Akt and PI3K pathway proteins in tumor lysates by reverse phase protein microarray (RPMA). The class given is in vivo. On the procedure:
Multiple proteins in the P13K pathway were assessed by reverse phase protein microarray (RPMA) in tumor lysates. Akt levels decreased in all models except MDA-MB-231 (wild type for BRCA1 and 2 and PTEN) following single agent and combination treatments. This effect is specific for Akt as no changes in total PI3K, Erk, or Src were observed. Phosphorylated Akt (S473 & T308) decreased by E7389 and combination treatment at 48 hours in MDA-MB-468 tumors. […] No significant effects of treatment were observed on phosphorylated Src (Y527) levels in any tumor models.

Setting [3] is: HCC1806 tumors, early time points.

Take `O=c1[nH]nc2c3c(cccc13)N=C(CN1Cc3ccccc3C1)N2` [E7449]: the “antitumor effect (tumor volume)” value was “modest and statistically significant tumor growth inhibition” in test [1] (E7449+E7389 study, E7449 60 mg/kg PO QDx28, single agent); “modest and statistically significant tumor growth inhibition” in test [1] (E7449+carboplatin study, E7449 60 mg/kg PO QDx28, single agent); “statistically significant tumor growth inhibition” in test [1] (triple combination study, E7449 60 mg/kg PO QDx28, single agent). In addition, the “phosphorylated Akt (S473 & T308)” value in test [2] (setting [3]) was “Increased”. Moreover, in test [2] (setting [3]), the “phosphorylated Erk (T202/Y204)” value is listed as “Increased”.

Consider `C=C1C[C@@H]2CC[C@@]34C[C@H]5OC6[C@@H](O[C@H]7CC[C@H](CC(=O)C[C@@H]8[C@@H](OC)[C@@H](C[C@H](O)CN)O[C@H]8C[C@H]8O[C@@H](CC[C@@H]1O2)C[C@@H](C)C8=C)O[C@@H]7[C@@H]6O3)[C@H]5O4` [E7389, 11, 15:18,21:24,28-triepoxy-7,9-ethano-12,15-methano-9H,15H-furo[3,2-i]furo[2′,3′:5,6]pyrano[4,3-b] [1,4]dioxacyclopentacosin-5(4H)-one, 2-[(2S)-3-amino-2-hydroxypropyl]hexacosahydro-3-methoxy-26-methyl-20,27-bis(methylene)-, (2R,3R,3aS,7R,8aS,9S,10aR,11S,12R,13aR,13bS,15S,18S,21S,24S,26R,28R,29aS)-methanesulfonate (salt)], for which the “antitumor effect (tumor volume)” value in test [1] (E7449+E7389 study, E7389 0.4 mg/kg IV Q4Dx4, single agent) was “modest antitumor effect”; in test [1] (E7449+E7389 study, E7389 1.6 mg/kg IV Q4Dx4, single agent), “tumor regression”; in test [1] (triple combination study, E7389 0.2 mg/kg IV Q4Dx4, single agent, 0.2 mg/kg) it was “did not significantly inhibit tumor growth”. The “antitumor effect (tumor volume), dose dependence” value in test [1] (E7449+E7389 study, E7389 0.4 and 1.6 mg/kg IV Q4Dx4, single agent) is “Dose dependent antitumor activity”. In addition, the “phosphorylated Akt (S473 & T308)” value in test [2] (MDA-MB-468 tumors, 48 hours) is reported as “decreased”.

Source of the values: patent publication US10238630B2, “Use of eribulin and poly (ADP ribose) polymerase (PARP) inhibitors as combination therapy for the treatment of cancer” (Eisai R&D Management Co., Ltd., priority 2014, dated 2019).
